Patent US20040259732A1, “Treatment of plants and plant propagation materials with an antioxidant to improve plant health and/or yield” (Monsanto Technology, L.L.C., priority 2003, published 2004)

Key:
[1] = test system: carrot seed; settings: carrot seed treatment; cited from earlier work
[2] = test system: seeds of black spruce and jack pine; settings: seed soak at 0, 0.1, and 10 mg/l; cited from earlier work
[3] = test system: carrot seeds; settings: seed soak: gibberellic acid 1 and 100 microgram/l, Ambiol 0.1 mg/l, glycinebetaine 100 mg/l; cited from earlier work
[4] = test system: Hybrid "A" corn seeds; assay: Cold condition germination test (Test 3), Hybrid A corn seeds; assay type: in vivo; settings: 10° C.
Experimental: (§1) This test was designed to measure the ability of seeds to germinate under adverse condition associated with high moisture and low temperature. Test 3-This test was conducted as described above in Test 1, except that the Petri dishes were incubated at a constant temperature of 10° C. Germination rate was determined as described above in Test 1. The test length continued for 30 days as the seeds are very slow to germinate under these conditions.

[5] = test system: Hybrid "B" corn seeds; assay: Cold condition germination test (Test 3), Hybrid B corn seeds; assay type: in vivo; settings: 10° C.
Experimental: as §1

[6] = test system: Corn plantlets (Hybrid LH176rr1.4(LH224×LH226)); assay: Fresh weight accumulation after cold stress, corn plantlets; assay type: in vivo; settings: seed treated with 50-100 g/100 kg; 6 days 18° C./12° C.
[7] = test system: Hybrid "A" (cold tolerant) corn; settings: 10° C.; 25 g/100 kg seed
Experimental: (§2) This test was designed to measure the emergence of plantlets from sprouted seeds under conditions that more closely resemble those found in field conditions.
(§3) For each sample batch of seed to be tested, 10 seeds were placed on ½″ of soil medium in a test tray and covered with an additional 2″ of soil medium. Three replications were prepared for each sample batch. The soil is moistened regularly and placed in the desired temperature regime. For a cold emergence test, trays are incubated at 10° C. with 16 hours of light. The tray is monitored daily over a 30-day period and a seed is counted as emerged when the spike breaks through the surface of the soil. Percent emergence is calculated as the number of emerged plantlets divided by the total number of seeds that were planted, times 100.
(§4) Corn hybrids “A” and “B”, as described above were treated with choline chloride at levels of 0, 10, 25 and 50 g/100 kg of seed. Each batch of seed was tested under 10° C. incubation conditions for emergence from a soil medium as described above.

[8] = test system: Hybrid "B" (cold sensitive) corn; settings: 10° C.
Experimental: as §2, §3, §4

[9] = test system: corn seed; assay: Field trials, emergence in cold conditions by seed treatment rate; assay type: in vivo; settings: rates from 25 g/100 Kg to 250 g/100 Kg
Experimental: (§5) Samples of seed having each type of treatment shown in Table 3 were planted in a controlled field trial in the upper Midwestern United States. Conservation tillage practices were adhered to and planting was accomplished during the first 10% of the crop that got planted in that area. During the trial, the plant density (number of plants per acre) and the corn yield (bu/acre) were measured.

[10] = test system: corn seeds; settings: optimum (warm) conditions; any of the treatment levels tested (10-250 g/100 kg seed)
Experimental: Test 1—Ten seeds for each sample to be tested are placed in each of ten Petri dishes with 5 ml of distilled water and incubated at 30° C. day and 20° C. night with a 16 hour day length. Each day the Petri dishes were checked and scored for germination. Percent germination was determined as the average number of seeds which had germinated within the test period minus any abnormal seeds, divided by the total number of original seeds, times 100. A seed was considered germinated when the radical reached a length of 1 cm.
Test 2—Test 2 is much closer to an industry standard for optimum condition testing. Test seeds are placed on a moist paper towel and then covered with a second moist paper towel. The towel is then rolled into a cylinder and placed upright in a beaker containing water. The beaker is placed in an incubation chamber at 25° C. for 7 days in continuous darkness. After 7 days the number of seeds germinated are counted and converted to a percentage of seeds in the test. This test is used to determine the maximum germination potential of the seed.
After treatment, each seed sample was tested for germination in as described in Test 1, Test 2 and Test 3, as described above.

[11] = test system: Soybean plantlets (Hybrid AG3303); assay: Fresh weight accumulation after cold shock, soybean plantlets; assay type: in vivo; settings: seed treated with 10-20 g/100 kg; one week 22° C./13° C.; measured 10 days after return to greenhouse
Experimental: Soybean plantlets (Hybrid AG3303, available from Asgrow Seed Co., St. Louis, Mo.) that were grown in a greenhouse maintained at day/night temperatures of 30° C. day and 25° C. night and with a 12 hour light period. The seed had been treated with different levels of glycinebetaine and were grown in optimum greenhouse conditions until they reached the first trifoliate stage of development. The plants were then moved from the greenhouse and subjected to 22° C./13° C. day/night temperatures for one week in a Conviron growth chamber. After one week the plants were returned to the greenhouse for “recovery” in optimal conditions. The fresh weight accumulation of the plantlets was then measured after 10 days following their return to the greenhouse.

[12] = test system: cotton seeds; settings: treated cotton seeds; cited from earlier work
[13] = test system: Corn seeds (Hybrid LH176rr1.4(LH224×LH226)); assay type: in vivo; settings: field trial
Experimental: Corn seeds (Hybrid LH176rr1.4(LH224×LH226, available from Holden's Foundation Seeds, Inc., Williamsburg, Iowa) were treated with an antioxidant, alone or in combination with a pesticide (silthiofam, available from Monsanto Co., St. Louis, Mo., under the trade name […]®, 11.83% w/w silthiofam) according to the rates shown in Table 3.
as §5

SMILES: Cc1nc2ccc(O)c(CN(C)C)c2[nH]1 [Ambiol, 2-methyl-4-[dimethylaminomethyl]-5-hydroxybenzimidazole]
- germination in carrots [1]: hastened germination
- membrane leakage [2]: reduced membrane leakage
- emergence of seedlings [3]: accelerated emergence of seedlings

SMILES: C[N+](C)(C)CCO.[Cl-] [choline chloride]
- 50% germination earlier than untreated control ([4]; 100 g/100 kg (best rate)): two days earlier
- effect on germination rate ([4]; lower treatment rates, FIG. 1A / FIG. 2A): substantially the same effect
- 50% germination earlier than untreated control ([5]; 50 g/100 kg): three days earlier
- 50% germination earlier than untreated control ([5]; 100 g/100 kg): three days earlier
- fresh weight accumulation after cold shock vs untreated seed [6]: tendency for greater fresh weight accumulation
- 50% emergence earlier than untreated control [7]: three days before the untreated control
- day on which 50% emergence was reached [7]: 22 days
- days after seeding at which 50% germination was reached ([8]; 10 g/100 kg seed): 29 days
- increase in germination time over untreated control ([8]; 10 g/100 kg seed, study end 31 days): minimum of two days
- first evidence of emergence ([8]; 10 g/100 kg treated seed): 21 days
- emergence as a function of rate [9]: emergence is found to increase with the increase of the rate
- effect on germination under normal growing conditions [10]: no negative effects on germination

SMILES: C[N+](C)(C)CC(=O)[O-] [glycinebetaine]
- 50% germination earlier than untreated control ([5]; 50 g/100 kg): three-day earlier germination
- 50% germination earlier than untreated control ([5]; 100 g/100 kg): three-day earlier germination
- fresh weight accumulation following the cold shock [11]: greater fresh weight accumulation
- drought tolerance [12]: improvement in drought tolerance
- germination in carrots [1]: hastened germination
- emergence of seedlings [3]: accelerated emergence of seedlings

SMILES: C=CCNC(=O)c1c([Si](C)(C)C)sc(C)c1C [silthiofam, 4,5-dimethyl-N-(2-propenyl)-2-(trimethylsilyl)-3-thiophenecarboxamide]
- corn yield improvement over untreated control ([13]; rates of Table 3 (silthiofam 25, choline chloride 250, glycinebetaine 50, BHA/BHT 10 g/100 kg seed), FIGS. 7B and 7C): ~20%
- corn plant density (number of plants per acre) ([13]; rates of Table 3, FIG. 7A): significant improvement in corn plant density

SMILES: C=C1C[C@]23C[C@@]1(O)CC[C@H]2[C@@]12C=C[C@H](O)[C@@](C)(C(=O)O1)[C@H]2[C@@H]3C(=O)O [gibberellic acid]
- emergence of seedlings [3]: accelerated emergence of seedlings
